{
  "source": "patent US20260144805A1",
  "about": "“CANNABIDIOL COMPOSITIONS FOR USE IN THE TREATMENT OF NEURODEGENERATIVE AND NEUROLOGICAL DISORDERS” (JAZZ PHARMACEUTICALS RESEARCH UK LIMITED, priority 2022, published 2026)",
  "key": {"rat VPA model [1]": {"system": "rat VPA model", "test": "Marble burying test P58 in rat VPA model (Example 5; DS = DS-E)", "format": "in vivo", "conditions": "adult P58, risperidone 0.125 mg/kg", "procedure": "(§1) Time-mated female Wistar rats were administered a single dose of valproic acid (VPA, 600 mg/kg, i.p.) on gestational day 12.5. Male offspring were delivered and confirmation of the VPA induced developmental deficit was rapidly achieved by examination of characteristic “tail kinks” in the juvenile animals. The timeline of experiments is outlined in FIG. 8 and animals were randomly allocated to treatment groups (Table O).\n(§2) Control animals were administered sterile saline (0.9% w/v, i.p.) in utero and the vehicle control (ethanol: Kolliphor HS15: saline (1:1:18, v/v/v), i.p.\nThe marble burying test has been employed as an animal model of anxiety and impulsive behavior. […] Over a 10-minute test period animals were allowed to freely explore the apparatus and subsequently removed whereupon marbles covered by at least one half with bedding were considered buried and this number was recorded and was the main outcome measure for this behavior. Video recording of the test period was evaluated for locomotor activity and scored for frequency and duration of digging behavior.\n(§3) All data was assessed for outliers (ROUT; Prism V9.02) and then normality using D'Agostino and Pearson normality test for n=8, or Shapiro-Wilks test for n<8 or unequal groups. Data that were non-normally distributed were analysed using Kruskal-Wallis followed by planned comparisons with Dunn's correction. Normally distributed data were analysed using one-way ANOVA or two-way ANOVA followed by planned comparisons with Sidak's correction. […] Statistical significance was defined as p<0.05 using Prism 9.0.2 software for analysis."}, "rat VPA model [2]": {"system": "rat VPA model", "test": "Open field test (locomotor activity, circling, grooming, centre zone) P56-57 in rat VPA model (Example 5; DS = DS-E)", "format": "in vivo", "conditions": "adult, risperidone 0.125 mg/kg", "procedure": "as §1, §2\nAnimals were scored for locomotor activity and exploratory behavior in a two 10-minute trials within an open field arena over two days. Each day the animals were placed into a […] black Perspex box with 30 cm side walls, under low light and monitored via remote video capture for spontaneous activity. Linked to Ethovision XT image analysis software this was analysed for total distance moved and number and duration of center zone crossings. Manual scoring of the videos was then conducted (blinded to treatment group) to determine frequency of circling behavior (number of 360 degree turns) and time spent grooming.\nas §3"}},
  "data": [
    {"smiles": "Cc1nc2n(c(=O)c1CCN1CCC(c3noc4cc(F)ccc34)CC1)CCCC2", "note": "[Risperidone]", "values": [
      {"measurement": "VPA-induced digging behaviour", "setting": "rat VPA model [1]", "result": "significantly reduced"},
      {"measurement": "number of marbles buried", "setting": "rat VPA model [1]", "result": "no significant effect"},
      {"measurement": "number of marbles buried", "setting": "rat VPA model [1]; listed as risperidone", "result": "significantly reduced"},
      {"measurement": "grooming behaviour", "setting": "rat VPA model [2]; day 1", "result": "significantly reduced"},
      {"measurement": "frequency of centre zone crossings", "setting": "rat VPA model [2]; day 1, vs VPA/Veh", "result": "significant decrease"},
      {"measurement": "circling behaviour", "setting": "rat VPA model [2]; day 2", "result": "significantly reversed"},
      {"measurement": "grooming behaviour", "setting": "rat VPA model [2]; day 2", "result": "significantly reduced"},
      {"measurement": "number of centre zone crossings", "setting": "rat VPA model [2]; day 2", "result": "significantly reduced"},
      {"measurement": "time spent in the centre zone", "setting": "rat VPA model [2]; day 2", "result": "significantly reduced"},
      {"measurement": "increase in locomotor activity (distance travelled)", "setting": "rat VPA model [2]; day one", "result": "significantly prevented"},
      {"measurement": "time spent in the centre zone", "setting": "rat VPA model [2]; day one", "result": "significantly reduced"},
      {"measurement": "increase in locomotor activity (distance travelled)", "setting": "rat VPA model [2]; day two", "result": "significantly prevented"}
    ]}
  ]
}
